Data from US10221165B2, “Flavone based EGFR inhibitors and process for preparation thereof” (Council of Scientific and Industrial Research, priority 2015, dated 2019).

Experiments:
[1] = test system: A549 Cell line (Lung Cancer Cell line); assay: Cell proliferation assay (MTT), in-vitro anticancer activity against A549 cell line; type: cell-based; conditions: Homo sapiens, 72 h; for viability at 0.01 µM: A549, 0.01 μM; for viability at 0.1 µM: A549, 0.1 μM; for viability at 2.5 µM: A549, 2.5 μM; for viability at 5 µM: A549, 5 μM; for viability at 10 µM: A549, 10 μM
Protocol: (§1) Each cell line was plated in 96-well microtiter plates (10,000 cells per well), and serial dilutions of indicated compounds were added. At the end of the incubation period (72 h at 37° C.), cell viability was determined by a tetrazolium dye, MTT (3-(4,5-dimethylthiazol-2-yl)-2,5-diphenyl tetrazolium bromide) (Promega, USA). The formazan crystals were dissolved in DMSO, and the absorbance at 600 nm was recorded using an ELISA plate reader. IC50 values were calculated using nonlinear regression and defined as the concentration needed for a 50% reduction in absorbance of treated versus untreated control cells.
In-Vitro Anticancer Activity Against A549 Cell Line (Lung Cancer Cell Line) (Adenocarcinomic Human Alveolar Basal Epithelial Cells)

[2] = test system: U87MG Cell line (glioblastoma cell line); assay: Cell proliferation assay (MTT), in-vitro anticancer activity against U87MG cell line; type: cell-based; conditions: Homo sapiens, U-87 MG, 72 h
Protocol: as §1
In-Vitro Anticancer Activity Against U87MG Cell Line (Glioblastoma Cell Line)

[3] = Log P (Table 4); type: physicochemical; conditions: method not stated

Row | Compound | viability at 0.01 µM [1] | viability at 0.1 µM [1] | viability at 2.5 µM [1] | viability at 5 µM [1] | viability at 10 µM [1] | viability at 0.01 µM [2] | viability at 0.1 µM [2] | viability at 2.5 µM [2] | viability at 5 µM [2] | viability at 10 µM [2] | logP [3] | melting point
1 | Cc1ccc(Nc2nc(N)c(-c3cc(=O)c4ccccc4o3)s2)cc1 [Compound S1-M9, 2-(2-(p-tolylamino)-4-aminothiazol-5-yl)-4H-chromen-4-one] | 100% | 91.8% | 87.3% | 77.3% | 67.3% | 87% | 78.8% | 70.3% | 62.3% | 55.6% | 1.9 | 200 to 202 °C
2 | COc1ccc(Nc2nc(N)c(-c3cc(=O)c4ccc(OC)cc4o3)s2)cc1 [Compound S1-M14, 2-(2-(4-methoxyphenylamino)-4-aminothiazol-5-yl)-7-methoxy-4H-chromen-4-one] | 98% | 89.1% | 81.1% | 71.1% | 63.1% | 91% | 80.1% | 70.6% | 61.3% | 51.1% | 2.6 | 220 to 222 °C
3 | COc1ccc2oc(-c3sc(Nc4c(C)cccc4C)nc3N)cc(=O)c2c1 [Compound S1-M12, 2-(2-(2,6-dimethylphenylamino)-4-aminothiazol-5-yl)-6-methoxy-4H-chromen-4-one] | 92.1% | 95.4% | 86.9% | 78.9% | 66.9% | 85.1% | 73.4% | 65.9% | 56.9% | 45.8% | 2.7 | 228 to 230 °C
4 | Cc1cccc(C)c1Nc1nc(N)c(-c2cc(=O)c3ccc(O)cc3o2)s1 [Compound S1-M4, 2-(2-(2,6-dimethylphenylamino)-4-aminothiazol-5-yl)-7-hydroxy-4H-chromen-4-one] | 88.6% | 85.8% | 77.6% | 68.6% | 61.6% | 80.6% | 71.8% | 65.6% | 58.6% | 50.6% | 3.42 | 224 to 226 °C
5 | COc1ccc2oc(-c3sc(Nc4ccc(C)cc4)nc3N)cc(=O)c2c1 [Compound S1-M10, 2-(2-(p-tolylamino)-4-aminothiazol-5-yl)-6-methoxy-4H-chromen-4-one] | 96.9% | 93% | 86.4% | 76.4% | 66.4% | 87.9% | 78% | 69.4% | 59.4% | 50.4% | 3.99 | 280 to 282 °C
6 | Nc1nc(Nc2ccccc2)sc1-c1cc(=O)c2ccccc2o1 [Compound S1-M1, 2-(4-amino-2-(phenylamino)thiazol-5-yl)-4H-chromen-4-one] | 100% | 90.5% | 82.5% | 75.5% | 60.5% | 88% | 79.5% | 70.5% | 62.5% | 51.5% | 3.2 | 232 to 234 °C
7 | COc1ccc2oc(-c3sc(Nc4c(Cl)cccc4Cl)nc3N)cc(=O)c2c1 [Compound S1-M13, 2-(2-(2,6-dichlorophenylamino)-4-aminothiazol-5-yl)-6-methoxy-4H-chromen-4-one] | 95.4% | 90.9% | 82.6% | 72.6% | 62.6% | 90.4% | 81.9% | 72.4% | 64.6% | 55.9% | 2.18 | 260 to 262 °C
8 | COc1ccc2c(=O)cc(-c3sc(Nc4ccccc4OC)nc3N)oc2c1 [Compound S1-M15, 2-(2-(2-methoxyphenylamino)-4-aminothiazol-5-yl)-7-methoxy-4H-chromen-4-one] | 96.1% | 92.7% | 85.3% | 75.3% | 68.3% | 89.1% | 77.9% | 68.7% | 60.7% | 50.3% | 2.5 | 210 to 212 °C
9 | Cc1ccccc1Nc1nc(N)c(-c2cc(=O)c3ccc(O)cc3o2)s1 [Compound S1-M3, 2-(2-(o-tolylamino)-4-aminothiazol-5-yl)-7-hydroxy-4H-chromen-4-one] | 97.6% | 91.4% | 85.8% | 74.8% | 55.8% | 82.6% | 74.4% | 68.8% | 60.8% | 54.8% | 2.01 | 268 to 270 °C
10 | COc1cc2ncnc(Nc3ccc(F)c(Cl)c3)c2cc1OCCCN1CCOCC1 [Gefitinib, gefitinib, reference compound] | 55.2% | 43.7% | 35.3% | 29.3% | 20.3% | 55.2% | 43.7% | 35.3% | 29.3% | 20.3% | – | –
11 | COc1ccc2oc(-c3sc(Nc4ccccc4C)nc3N)cc(=O)c2c1 [Compound S1-M11, 2-(2-(o-tolylamino)-4-aminothiazol-5-yl)-6-methoxy-4H-chromen-4-one] | 99.8% | 93.7% | 84.8% | 72.8% | 62.8% | 83.8% | 75.7% | 67.2% | 58.8% | 49.8% | 2.11 | 288 to 290 °C
12 | COc1ccc(Nc2nc(N)c(-c3cc(=O)c4ccc(O)cc4o3)s2)cc1 [Compound S1-M6, 2-(2-(4-methoxyphenylamino)-4-aminothiazol-5-yl)-7-hydroxy-4H-chromen-4-one] | 53.1% | 45.1% | 36.7% | 27.9% | 19.4% | 48.7% | 35.2% | 25.8% | 19.9% | 12.9% | 1.92 | 220 to 222 °C
13 | Nc1nc(Nc2ccccc2)sc1-c1cc(=O)c2ccc(O)cc2o1 [Compound S1-M8, 2-(4-amino-2-(phenylamino)thiazol-5-yl)-7-hydroxy-4H-chromen-4-one] | 93.3% | 87.1% | 75% | 64% | 54% | 88.3% | 76.1% | 68% | 59% | 51.4% | 3.32 | 218 to 220 °C
14 | Cc1ccc(Nc2nc(N)c(-c3cc(=O)c4ccc(O)cc4o3)s2)cc1 [Compound S1-M2, 2-(2-(p-tolylamino)-4-aminothiazol-5-yl)-7-hydroxy-4H-chromen-4-one] | 56.1% | 41.1% | 31.1% | 24.1% | 20.9% | 41.1% | 34.4% | 28.1% | 19.6% | 14.9% | 1.9 | 244 to 246 °C
15 | Nc1nc(Nc2c(Cl)cccc2Cl)sc1-c1cc(=O)c2ccc(O)cc2o1 [Compound S1-M5, 2-(2-(2,6-dichlorophenylamino)-4-aminothiazol-5-yl)-7-hydroxy-4H-chromen-4-one] | 98.8% | 91.6% | 83.9% | 71.9% | 65.9% | 84.8% | 77.6% | 69.9% | 60.9% | 52.9% | 3.02 | 260 to 262 °C
16 | COc1ccccc1Nc1nc(N)c(-c2cc(=O)c3ccc(O)cc3o2)s1 [Compound S1-M7, 2-(2-(2-methoxyphenylamino)-4-aminothiazol-5-yl)-7-hydroxy-4H-chromen-4-one] | 96.1% | 94.9% | 84.8% | 74.8% | 66.8% | 85.1% | 75.9% | 65.8% | 57.8% | 45.8% | 2.11 | 210 to 212 °C
